Earlier results, collected in patent publication US12251361B2, “Solutions for oral dosage” (LIQMEDS WORLDWIDE LIMITED, priority 2019, dated 2025).

CN(C)CCC=C1c2ccccc2CCc2ccccc21.Cl [Amitriptyline HCl, 3-(10,11-dihydro-5H-dibenzo[a,d]cycloheptene-5-ylidene)-N,N-dimethyl-1-propanamine hydrochloride]
Solubility in water: freely soluble
